Columns and labels:
Type in all cases: in vivo, Mice
[1] = test system: cytokines (TNFα, IL-6, IL1b and INFγ) and chemokine (G-CSF, MCP-1, KC and MIP-1a) levels in muscle; experiment: Effect of MaR1 on the local cytokine profile induced by adjuvant injection (CBA on muscle homogenates); conditions: MaR1 5 ng/dose intramuscularly 1 h prior to AS01B; 4 h post-injection of the MaR1
Protocol: Mice (n=6/gr) were injected intramuscularly with the same synthetic MaR1 as the one used in Example 2 (5 ng/dose), or PBS as a control. 1 h later, mice received intramuscularly adjuvant AS01B or PBS. Muscles were collected at 4 h and 24 h following MaR1/PBS administration and frozen at −70° C. Muscles were thawed and homogenized and cytokines (TNFα, IL-6, IL1b and INFγ) and chemokine (G-CSF, MCP-1, KC and MIP-1a) levels in the cleared homogenates were measured by CBA (Becton Dickinson). The cytokine/chemokine concentrations are expressed in pg/mL. The plotted area represents the mean obtained for a specific cytokine/chemokine. A 2-way ANOVA was performed to compare the different groups. *: p<0.05 (See FIG. 4).

[2] = test system: Anti-OVA or anti-HBs antibodies; experiment: Effect of MaR1 on specific antibody responses induced by vaccine injection (ELISA on sera); conditions: MaR1 5 ng/dose intramuscularly 1 h prior to OVA and HBS antigens in AS01B; vs antigens and adjuvant alone
Protocol: Mice (n=30/gr) were injected intramuscularly with the same synthetic MaR1 as the one used in Example 2 (5 ng/dose), or PBS as a control. 1 h later, mice were vaccinated with OVA and HBS antigens re-suspended in adjuvant AS01B or in PBS. This vaccination scheme was repeated 15 days later. Sera were taken 7 days after the second immunization. Anti-OVA (A) or anti-HBs (B) antibodies were detected by ELISA. Antibody titers are expressed in ng/mL. Each point represents an individual value; the bar represents the mean+/−SD. (See FIG. 6).

[3] = test system: local immune cells at the injection site (muscle); experiment: Effect of MaR1 on the local immune cells profile induced by adjuvant injection (flow cytometry of muscle cells); conditions: MaR1 5 ng/dose intramuscularly 1 h prior to AS01B
Protocol: Mice (n=6/gr) were injected intramuscularly with synthetic 7-Maresin-1 (MaR1) (5 ng/dose) or PBS as a control. 1 h later, mice received intramuscularly adjuvant AS01B or PBS. Muscles were collected at 4 h and 24 h following 7-Maresin-1/PBS administration and local immune cells were extracted. The cells were stained with the following antibodies: Lytic, SiglecF, CD90.2, Ly6G, CD11b, CD11c, HLA DR, CD45 and CD19 and analysed by flow cytometry. The cell recruitment is expressed in number of cells per muscle. The plotted area represents the mean obtained for a specific subpopulation. A 2-way ANOVA was performed to compare the different groups. *: p<0.05. The chemical structure of the synthetic MaR1 used in the present experiment is identical to the chemical structure of MaR1 disclosed in Buckley et al. (“Proresolving Lipid Mediators and Mechanisms in the Resolution of Acute Inflammation”, 2014, Immunity 40: 315-327).

[4] = test system: CD4+ or CD8+ T cells expressing at least 2 cytokines; experiment: Effect of MaR1 on specific T cell responses induced by vaccine injection (intracellular cytokine staining of spleen cells); conditions: MaR1 5 ng/dose intramuscularly 1 h prior to OVA and HBS antigens in AS01B; vs antigens and adjuvant alone
Protocol: Mice (n=30/gr) were injected intramuscularly with the same synthetic MaR1 as the one used in Example 2 (5 ng/dose) or PBS as a control. 1 h later, mice were vaccinated with OVA (Ovalbumin) and HBS (Hepatitis B Surface) antigens re-suspended in adjuvant AS01B or in PBS. This vaccination scheme was repeated 15 days later. Spleens were removed 7 days after the second immunization, and immune cells were extracted and stimulated overnight with OVA (A) or HBS (B) peptides. After surface staining with anti-CD4 and anti-CD8 antibodies, cells were labeled intra-cellularly with anti-IL-2, anti-IFN-γ and anti-TNF-α and analyzed by flow cytometry. Results are expressed as percentages of CD4+ or CD8+ T cells expressing at least 2 cytokines among the ones tested. Each point represents an individual value, the bar represents the mean+/−SD (see FIG. 5).

[5] = test system: cytokines (TNFα, IL-6, IL1b and IFNγ) and chemokine (G-CSF, MCP-1, KC and MIP-1a) levels in muscle; experiment: Effect of RvE1 on the local cytokine profile induced by adjuvants injection (CBA on muscle homogenates)
Protocol: Mice (n=6/gr) were injected intramuscularly with PBS, adjuvant AS03 or adjuvant AS01B. 1 h and 6 h later, the same synthetic RvE1 as the one used in Example 1 (0.2 μg/dose), or PBS was administered also intramuscularly. Muscles were collected at 4 h (A) and 24 h (B) following adjuvant or PBS administration and frozen at −70° C. Muscles were thawed and homogenized and cytokines (TNFα, IL-6, IL1b and IFNγ) and chemokine (G-CSF, MCP-1, KC and MIP-1a) levels in the cleared homogenates were measured by CBA (Becton Dickinson). The cytokine/chemokine concentrations are expressed in pg/mL. The plotted area represents the mean obtained for a specific cytokine/chemokine. A 2-way ANOVA was performed to compare the different groups. *: p<0.05 (See FIG. 3).

[6] = test system: local immune cells at the injection site (muscle); experiment: Effect of RvE1 on the local immune cells profile induced by adjuvants injection (flow cytometry of muscle cells); conditions: muscles at 24 h
Protocol: Mice (n=6/gr) were injected intramuscularly with PBS, AS03 adjuvant (oil-in-water emulsion) or AS01B adjuvant (MPL+QS21 in liposomes). 1 h and 6 h later, synthetic RvE1 (0.2 μg/dose) or PBS was administered also intramuscularly. Muscles were collected at 24 h following adjuvant/PBS administration and local immune cells were extracted. The cells were stained with the following antibodies: Lytic, SiglecF, CD90.2, Ly6G, CD11b, CD11c, HLA DR, CD45 and CD19 and analysed by flow cytometry. The cell recruitment is expressed in number of cells per muscle. The plotted area represents the mean obtained for a specific subpopulation. A 2-way ANOVA was performed to compare the different groups. *: p<0.05. The chemical structure of the synthetic RvE1 used in the present experiment is identical to the chemical structure of RvE1 disclosed in Buckley et al. (“Proresolving Lipid Mediators and Mechanisms in the Resolution of Acute Inflammation”, 2014, Immunity 40: 315-327).

Row | SMILES | modulation of local cytokines/chemokines profile [1] | anti-HBS antibody response induced by adjuvanted vaccine [2] | anti-OVA antibody response induced by adjuvanted vaccine [2] | pattern of immune cells at the injection site ([3]; 4 h post-injection) | pattern of immune cells at the injection site ([3]; 24 h post-injection) | CD4+ T cell response induced by adjuvanted vaccine [4] | CD8+ T cell response induced by adjuvanted vaccine [4] | modulation of local cytokines/chemokines concentration ([5]; RvE1 0.2 μg/dose intramuscularly after AS01B, 4 h post-injection of the adjuvant) | modulation of local cytokines/chemokines concentration ([5]; RvE1 0.2 μg/dose intramuscularly after AS01B, 24 h post-injection of the adjuvant) | modulation of local cytokines/chemokines concentration ([5]; RvE1 0.2 μg/dose intramuscularly after AS03, 4 h post-injection of the adjuvant) | modulation of local cytokines/chemokines concentration ([5]; RvE1 0.2 μg/dose intramuscularly after AS03, 24 h post-injection of the adjuvant) | recruitment of immune cells at the injection site (number of cells per muscle) ([6]; RvE1 0.2 μg/dose intramuscularly 1 h and 6 h after AS01B, vs AS01B alone) | recruitment of immune cells at the injection site (number of cells per muscle) ([6]; RvE1 0.2 μg/dose intramuscularly 1 h and 6 h after AS03, vs AS03 alone) | pattern of immune cells at the injection site ([6]; RvE1 on its own with PBS alone, compared with PBS alone)
1 | CC/C=C\C/C=C\C[C@H](O)\C=C/C=C/C=C/[C@H](O)C/C=C\CCC(=O)O [MaR1, 7-Maresin-1] | significant transient modulating effect | did not negatively impact the antibody immune response | did not negatively impact the antibody immune response | may be too early to detect an effect | increase of B cells and T cells recruitment on site | did not negatively impact the T cell immune response | did not negatively impact the T cell immune response | – | – | – | – | – | – | –
2 | CC[C@@H](O)/C=C/C=C\C[C@@H](O)/C=C/C=C/C=C\[C@@H](O)CCCC(=O)O [RvE1, Resolvin E1] | – | – | – | – | – | – | – | no significant modulating effect was observed | no significant modulating effect was observed | a significant modulating effect was observed | no significant effect was observed | The same conclusion holds true | significantly reduced recruitment of all the immune cell types tested | only a minimal effect on the pattern of immune cells
